Data: US11591243B2, “Industrial process and system for the inactivation of liquid waste” (CRISTALIA PRODUTOS QUIMICOS FARMACEUTICOS LTDA., priority 2018, dated 2023)
Counter-ions that a name gives are not always drawn.

Assays:
[1] = Inactivation kinetics by HPLC of high potency APIs with chemical agents; format: physicochemical; conditions: chemical agents and analytical methods appropriate for each API; different exposure time; HPLC (FIG. 4)
Description: The inactivation kinetics by HPLC of high potency APIs bortezomib, decitabine, sunitinib malate, temozolomide and zoledronic acid was evaluated using chemical agents and analytical methods appropriate for each API.

[2] = Inactivation kinetics by HPLC of imatinib mesylate liquid waste with hypochlorous acid; format: physicochemical; conditions: 20 mg/mL aqueous solution, 1% hypochlorous acid aqueous solution as inactivation chemical agent
Description: The inactivation kinetics by HPLC of a liquid waste comprising 20 mg/mL imatinib mesylate aqueous solution was evaluated using a 1% hypochlorous acid aqueous solution as inactivation chemical agent, as illustrated in FIGS. 2 and 3. It is possible to verify that 10 minutes of exposure were enough for complete inactivation of imatinib mesylate by hypochlorous acid.
The equipment used was a High-Performance Liquid Chromatography-HPLC, Agilent Tech. Model 1260.
Solution A: Prepare a mixture of methanol and acetonitrile (300:200) and homogenize.
Mobile Phase: transfer 1.65 g of sodium dihydrogen phosphate dihydrate to a beaker. Dissolve in 550 mL of purified water and adjust pH to 8.0±0.2 using trimethylamine and homogenize. Add 450 mL of solution A, homogenize and filter using a membrane of 0.45 μm.
Chromatographic Conditions:
Column: Develosil ODS HG-5 (4.6×150 mm, 5 μm)—Phenomenex
Column temperature: 30° C.
Chromatographic time: 50 minutes
Retention time for imatinib: about 18 minutes
Sample temperature: 5° C.

inactivation by chemical agent action [1]	exposure time enough for complete inactivation [2] [min]	Structure (SMILES)
completely inactivated		CC(C)C[C@H](NC(=O)[C@H](Cc1ccccc1)NC(=O)c1cnccn1)B(O)O [bortezomib]
	≤ 10	Cc1ccc(NC(=O)c2ccc(CN3CCN(C)CC3)cc2)cc1Nc1nccc(-c2cccnc2)n1 [imatinib mesylate]
completely inactivated		CCN(CC)CCNC(=O)c1c(C)[nH]c(/C=C2\C(=O)Nc3ccc(F)cc32)c1C [sunitinib malate]
